Experimental data as given in PMC3444172 (The Journal of organic chemistry, 2012).
Entries after “also recorded” stand apart in the source; their conditions may differ. Read-outs that look alike come from different tables or passages of the source.

Experiments:
[1] = biological target: T1, E. coli riboflavin synthase (recombinant) (Escherichia coli, UniProt P0AFU8); experiment: Kinetic assay of riboflavin synthase inhibitors, E. coli enzyme; format: biochemical; details: for Kcat (rate constant ES → E + P) / Ks (substrate dissociation constant, E + S ⇌ ES) / Kis (ES + I ⇌ ESI): substrate 3 varied, Tris·HCl pH 7.0
[2] = biological target: T2, S. pombe lumazine synthase (recombinant homopentameric) (Schizosaccharomyces pombe, UniProt Q9UUB1); experiment: Kinetic assay of lumazine synthase inhibitors, S. pombe enzyme; format: biochemical; details: for Kcat (rate constant ES → E + P) / Kis (ES + I ⇌ ESI) / Ks (substrate dissociation constant, E + S ⇌ ES): substrate 2 constant, substrate 1 varied, Tris·HCl pH 7.0
T2 sequence (Q9UUB1 1-159): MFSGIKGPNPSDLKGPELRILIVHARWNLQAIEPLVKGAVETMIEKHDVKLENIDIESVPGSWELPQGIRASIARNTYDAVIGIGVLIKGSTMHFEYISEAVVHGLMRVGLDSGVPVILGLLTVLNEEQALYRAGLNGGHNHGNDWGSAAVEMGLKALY

[3] = biological target: T3, M. tuberculosis lumazine synthase (recombinant homopentameric) (Mycobacterium tuberculosis, UniProt P9WHE9); format: biochemical; details: for Kcat (rate constant ES → E + P): pH 7
[4] = biological target: M. tuberculosis riboflavin synthase (recombinant) (Mycobacterium tuberculosis, UniProt P9WK35); experiment: Kinetic assay of riboflavin synthase inhibitors, M. tuberculosis enzyme; format: biochemical
[5] = test system: B. subtilis lumazine synthase (recombinant β60 capsid); details: previously reported compounds; cited from earlier work
[6] = biological target: baker's yeast riboflavin synthase; details: cited from earlier work
[7] = biological target: T1, E. coli riboflavin synthase (recombinant); details: previously reported compounds, cited from earlier work
[8] = biological target: Ashbya gossypii riboflavin synthase; details: cited from earlier work
[9] = biological target: T3, M. tuberculosis lumazine synthase (recombinant homopentameric); details: previously reported compounds, cited from earlier work
[10] = substrate 2 constant, substrate 1 varied, Tris·HCl pH 7.0
[11] = substrate 3 varied, Tris·HCl pH 7.0

T1 sequence (P0AFU8 whole entry): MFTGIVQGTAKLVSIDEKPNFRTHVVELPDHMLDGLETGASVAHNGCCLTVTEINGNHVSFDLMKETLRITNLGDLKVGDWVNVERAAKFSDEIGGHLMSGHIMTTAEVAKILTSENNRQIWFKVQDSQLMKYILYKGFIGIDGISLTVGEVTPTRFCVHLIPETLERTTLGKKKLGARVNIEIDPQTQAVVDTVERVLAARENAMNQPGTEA
M. tuberculosis riboflavin synthase (recombinant), sequence (P9WK35 whole entry): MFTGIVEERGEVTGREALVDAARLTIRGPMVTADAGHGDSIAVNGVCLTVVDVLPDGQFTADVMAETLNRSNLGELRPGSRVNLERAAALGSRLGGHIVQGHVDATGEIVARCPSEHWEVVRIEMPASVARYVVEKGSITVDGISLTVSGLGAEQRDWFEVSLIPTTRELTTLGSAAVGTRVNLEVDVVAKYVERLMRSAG
T3 sequence (P9WHE9 whole entry): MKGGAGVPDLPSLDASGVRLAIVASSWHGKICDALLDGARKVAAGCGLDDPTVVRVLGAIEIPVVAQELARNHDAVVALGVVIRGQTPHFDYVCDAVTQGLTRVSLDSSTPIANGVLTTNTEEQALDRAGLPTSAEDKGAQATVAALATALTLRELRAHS

| Structure (SMILES) | Mechanism of inhibition [1] | Kcat (rate constant ES → E + P) [1] | Ks (substrate dissociation constant, E + S ⇌ ES) [1] | Mechanism of inhibition [2] | Kcat (rate constant ES → E + P) [2] | Kis (ES + I ⇌ ESI) [2] | Ks (substrate dissociation constant, E + S ⇌ ES) [2] | Mechanism of inhibition [3] | Kcat (rate constant ES → E + P) [3] | Ks (substrate dissociation constant, E + S ⇌ ES) [3, 10] | Mechanism of inhibition [4] | Kcat (rate constant ES → E + P) [4, 11] | Kis (ES + I ⇌ ESI) [4, 11] | Ks (substrate dissociation constant, E + S ⇌ ES) [4, 11] | Kis (ES + I ⇌ ESI) [1] | Kis (ES + I ⇌ ESI) [3, 10] | also measured |
| --- | --- | --- | --- | --- | --- | --- | --- | --- | --- | --- | --- | --- | --- | --- | --- | --- | --- |
| O=c1[nH]c(OC[C@H](O)[C@H](O)[C@H](O)CO)c([N+](=O)[O-])c(=O)[nH]1 [Compound 22, 5-Nitro-6-((2S,3R,4R)-2,3,4,5-tetrahydroxypentyloxy)pyrimidine-2,4(1H,3H)-dione] | Competitive | 3.3 ± 0.01 m^−1 | 2.6 ± 0.2 µM | Partial | 1.4 ± 0.0 m^−1 | 110 ± 40 µM | 1.4 ± 0.1 µM | Competitive | 0.19 ± 0.00 m^−1 | 25 ± 2 µM | Partial | 0.26 ± 0.01 m^−1 | 26 ± 6 µM | 7.1 ± 0.7 µM | – | – | – |
| Nc1c(OC[C@@H](O)[C@H](O)[C@@H](O)CO)[nH]c(=O)[nH]c1=O [Compound 29, 5-Amino-6-((2R,3R,4S)-2,3,4,5-tetrahydroxypentyloxy)pyrimidine-2,4(1H,3H)-dione] | Uncompetitive | 3.2 ± 0.1 m^−1 | 2.5 ± 0.1 µM | Partial | 1.3 ± 0.0 m^−1 | 43 ± 8 µM | 1.2 ± 0.1 µM | Uncompetitive | 0.18 ± 0.01 m^−1 | 27 ± 2 µM | Uncompetitive | 0.25 ± 0.01 m^−1 | 577 ± 121 µM | 5.6 ± 0.5 µM | >1000 µM | >1000 µM | – |
| CCOC(=O)C(=O)Nc1c(OC[C@H](O)[C@H](O)[C@H](O)CO)[nH]c(=O)[nH]c1=O [Compound 36, Ethyl 2-(2,4-dioxo-6-((2S,3R,4R)-2,3,4,5-tetrahydroxypentyloxy)1,2,3,4-tetrahydropyrimidin-5-ylamino)-2-oxoacetate] | Uncompetitive | 5.8 ± 0.2 m^−1 | 3.0 ± 0.3 µM | Uncompetitive | 2.7 ± 0.1 m^−1 | >1000 µM | 6.4 ± 0.6 µM | Uncompetitive | 0.26 ± 0.01 m^−1 | 34 ± 5 µM | Uncompetitive | 0.25 ± 0.01 m^−1 | >1000 µM | 5.0 ± 0.5 µM | >1000 µM | >1000 µM | inhibitory activity in words ([3]; lumazine synthase inhibition, qualitative statement): completely inactive; also recorded: totally inactive; Ki (E + I ⇌ EI) [3, 10]: > 1000 µM |
| COC(=O)C(=O)Nc1c(OC[C@H](O)[C@H](O)[C@H](O)CO)[nH]c(=O)[nH]c1=O [Compound 37, Methyl 2-(2,4-dioxo-6-((2S,3R,4R)-2,3,4,5-tetrahydroxypentyloxy)1,2,3,4-tetrahydropyrimidin-5-ylamino)-2-oxoacetate] | Uncompetitive | 3.4 ± 0.1 m^−1 | 3.1 ± 0.2 µM | Partial | 1.5 ± 0.0 m^−1 | 56 ± 15 µM | 1.7 ± 0.2 µM | Competitive | 0.18 ± 0.00 m^−1 | 29 ± 2 µM | Uncompetitive | 0.22 ± 0.01 m^−1 | 868 ± 305 µM | 4.1 ± 0.4 µM | >1000 µM | – | Ki (E + I ⇌ EI) [4, 11]: 868 µM |
| O=c1[nH]c(=O)c2[nH]c(=O)c(=O)n(C[C@H](O)[C@H](O)[C@H](O)CO)c2[nH]1 [Compound 81, 6,7-dihydro-6,7-dioxo-8-ribityllumazine] | – | – | – | – | – | – | – | – | – | – | – | – | – | – | – | – | Mechanism of inhibition [5]: Competitive; Ki [6]: 0.025 µM; Kcat (rate constant ES → E + P) ([7]; Tris·HCl pH 7.0): 15 ± 0 m^−1; Mechanism of inhibition [7]: Competitive; Ki [8]: 0.009 µM; Kcat (rate constant ES → E + P) ([9]; Tris·HCl pH 7.0): 1.1 ± 0.1 m^−1; Mechanism of inhibition [9]: Competitive |
